Test results reported in patent publication US12350277B2, “Compositions and methods of use for treating aberrant inflammation in peri-ocular secretory glands or at the ocular surface” (CS Pharmaceuticals Limited, priority 2017, dated 2025).
Read-outs that look alike come from different tables or passages of the source. Each block holds one compound with its values, some of them ahead of it.

Experiments:
[1] = test system: NFκB pathway; settings: A549, HeLa, MG63, 16HBE, and H9 cell lines; IL-1β / TNFα stimulation; cited from earlier work
[2] = plasma exposure after BID eyelid cream administration in minipigs; format: in vivo, Hanford minipigs
Procedure: (§1) To determine the ocular exposure and pharmacokinetics following topical cream administration to the eyelids, the cream containing 2% of compound of Formula I was applied BID to eyelids of 8 Hanford minipigs for 7 days and one additional application on day 8 for a total of 15 topical doses. After the last dose on day 8, two animals each were euthanized at 2, 4, 8, and 24 hours after the final dose, and eyes were collected for dissection into the following tissues and fluids: eyelids (including palpebral conjunctiva), bulbar conjunctiva, cornea, iris/ciliary body (ICB), and aqueous humor (AQH). Plasma was also collected (prior to dose application on Days 1 and 8, and prior to euthanasia). […] Meibum was believed to be only one lipid compartment in the eyelids that could act as a depot for lipophilic compounds. […] and other fatty tissues were others. Attempts to express meibum from the ducts, thereby rendering the eyelid itself unusable for further analysis, would have not permitted assessment of drug content in other potential lipid structures in the eyelids. Thus, the decision was made to assess drug exposure in the eyelid as an intact tissue to capture all potential drug depots.
Three different extraction and analytical methods were developed for the determination of the compound of Formula I in i) plasma and aqueous humor; ii) bulbar conjunctiva, cornea, ICB; iii) eyelids. Assay ranges were 0.1-100 ng/mL, 1-1000 ng/g, and 1-1000 ng/g, respectively. Briefly, analytical methods were as follows: i) plasma and aqueous humor standards were from minipig and rabbit, respectively; ii) bulbar conjunctiva, cornea, ICB standard was rabbit cornea; iii) eyelid standard was pig skin. The internal standard working solution for analytical purposes was comprised of 20.0 ng/mL ^13C2, ^15N-labeled compound of Formula I in acetonitrile with 1% formic acid (v/v) which was being added to each sample. […]

[3] = test system: cynomolgus monkeys with unilateral (OS) ocular hypertension; test: diurnal intraocular pressure during 4-week topical ocular treatment in ocular hypertensive monkeys; format: in vivo; settings: 4 weeks
From the text: To test the effect of the compound of Formula I on intraocular pressure (IOP), eight female cynomolgus monkeys with unilateral (OS) ocular hypertension induced by prior photocoagulation (laser) procedure to the trabecular meshwork (TM) were used at an age between 11 and 14 years at the start of the study. Laser induced ocular hypertension had been created at least 9 years earlier in the study animals. Animals and treatments were randomized according to a 4×4 replications Williams-type Latin Square design layout. Following random assignment of a number between 1 and 8, the eight primates were randomized two each into four treatment groups (A-D), with treatments masked for the investigators until all data had been collected and entered into a database. […]
Conscious animals were seated in custom-designed chairs, and […] was measured with a pneumatonometer (Classic 30, Reichert Depew) after topical application of proparacaine hydrochloride (0.13%) in both eyes (FIG. 1). […] During run-in and treatment periods, diurnal IOP was determined two times per week at approximately 8:30 am, 1 pm, and 5 pm. For each animal bilateral tonometry was followed immediately by topical instillation of the appropriate drug formulation A, B, C, or D. During washout periods, diurnal IOP was measured once per week in both eyes at approximately 8:30 am, 1 pm, and 5 pm.

[4] = ocular exposure and pharmacokinetics after BID eyelid cream administration in minipigs; format: in vivo, Hanford minipigs; settings: for concentration at 8 h: 8 hours post final dose
Procedure: as §1
Three different extraction and analytical methods were developed for the determination of the compound of Formula I in i) plasma and aqueous humor; ii) bulbar conjunctiva, cornea, ICB; iii) eyelids. Assay ranges were 0.1-100 ng/mL, 1-1000 ng/g, and 1-1000 ng/g, respectively. Briefly, analytical methods were as follows: i) plasma and aqueous humor standards were from minipig and rabbit, respectively; ii) bulbar conjunctiva, cornea, ICB standard was rabbit cornea; iii) eyelid standard was pig skin. The internal standard working solution for analytical purposes was comprised of 20.0 ng/mL ^13C2, ^15N-labeled compound of Formula I in acetonitrile with 1% formic acid (v/v) which was being added to each sample. The tissue/fluid sample extraction procedure involved i) plasma/aqueous humor sample; ii) bulbar conjunctiva, cornea, ICB homogenization in acetonitrile; iii) eyelid digestion in 1:1 acetonitrile:ammonium hydroxide solution for 1.5 hours at 37° C. followed by acetonitrile addition, homogenization, and neutralization with formic acid; in all cases followed by addition of internal standard working solution, vortexing and centrifugation. Analysis of the samples was then carried out with LC-MS/MS, employing mobile phases A (Water with 0.1% formic acid) and B (acetonitrile with 0.1% formic acid).

[5] = biological target: T1, glucocorticoid receptor (Homo sapiens, UniProt P04150); settings: number of assays; cited from earlier work
T1 sequence (P04150 1-777): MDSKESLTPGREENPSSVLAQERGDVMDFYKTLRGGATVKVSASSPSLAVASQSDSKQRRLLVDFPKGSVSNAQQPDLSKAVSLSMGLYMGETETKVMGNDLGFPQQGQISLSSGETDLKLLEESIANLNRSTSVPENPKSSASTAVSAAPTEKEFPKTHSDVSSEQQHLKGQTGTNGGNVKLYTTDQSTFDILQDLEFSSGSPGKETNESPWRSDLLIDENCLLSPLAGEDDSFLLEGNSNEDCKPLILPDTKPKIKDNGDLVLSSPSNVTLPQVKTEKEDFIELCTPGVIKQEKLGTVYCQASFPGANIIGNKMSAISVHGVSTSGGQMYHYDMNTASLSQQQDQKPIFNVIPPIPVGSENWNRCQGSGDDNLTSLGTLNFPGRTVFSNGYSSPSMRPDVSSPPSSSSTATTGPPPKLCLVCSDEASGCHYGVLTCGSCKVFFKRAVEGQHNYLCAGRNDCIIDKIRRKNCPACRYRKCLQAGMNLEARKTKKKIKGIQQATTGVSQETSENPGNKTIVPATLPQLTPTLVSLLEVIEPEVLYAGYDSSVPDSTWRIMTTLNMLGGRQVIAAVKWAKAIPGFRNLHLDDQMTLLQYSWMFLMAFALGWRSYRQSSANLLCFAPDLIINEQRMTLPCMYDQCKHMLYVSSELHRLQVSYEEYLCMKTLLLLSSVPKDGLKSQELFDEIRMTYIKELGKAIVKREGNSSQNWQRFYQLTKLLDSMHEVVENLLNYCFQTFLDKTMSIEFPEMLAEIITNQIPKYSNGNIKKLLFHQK

[6] = test system: models of lung inflammation; settings: rat, intratracheal dosing; cited from earlier work
[7] = in vitro skin penetration, human cadaver skin in Franz-type diffusion cells; format: in vitro ADME
Procedure: An in vitro skin penetration model using human cadaver skin mounted in Franz-type diffusion cells (FDC) was chosen to determine the skin permeation of the compound of Formula I applied as a 2% cream to the epidermal surface. Transdermal flux into a receptor fluid was measured over a period of 46 hours after application of the formulations. At the end of the 46-hour incubation period, the skin was tape-stripped and heat separated based on an established method and the concentration of the compound of Formula I was measured in the residual epidermis and dermis. The applied formulations comprised of 2% w/w compound of Formula I, 46% w/w white petrolatum, 8% w/w mineral oil, 8% w/w propylene glycol, 6.6% w/w ST-cyclomethicone-SNF, 3.3% w/w emulsifier 10, 2% w/w ST-elastomer-10, 0.08% w/w methylparaben, 0.06% w/w sodium phosphate dibasic anhydrous, 0.05% w/w citric acid anhydrous, 0.02% w/w propylparaben, and q.s. purified water. Vehicle cream comprised of 48% w/w white petrolatum, 8% w/w mineral oil, 8% w/w propylene glycol, 6.6% w/w ST-cyclomethicone-SNF, 3.3% w/w emulsifier 10, 2% w/w ST-elastomer-10, 0.08% w/w methylparaben, 0.06% w/w sodium phosphate dibasic anhydrous, 0.05% w/w citric acid anhydrous, 0.02% w/w propylparaben, and q.s. purified water was also tested as a negative control. […]
A high performance liquid chromatography UV (“HPLC-UV”) analytical method and an LC-MS/MS method for detecting the compound of Formula I in the skin and in the receptor fluid samples, respectively, was implemented and employed mobile phases A (0.05 mL trifluoroacetic acid (TFA) in 1000 mL LC-MS grade water) and B (0.05 mL TFA in 1000 mL LC-MS grade acetonitrile). The lower level of quantification (LLOQ) for the compound of Formula I for the LC-MS/MS method was determined to be in the 6-10 ng/mL range.

[8] = solubility limit in receptor fluid; format: physicochemical; settings: not told, aqueous with cosolvent or surfactant or cyclodextrin; phosphate-buffered saline pH 7.4 with 0.01 wt % Na azide and 1 wt % Brij 020
[9] = test system: models of lung inflammation; settings: mouse, intratracheal dosing; cited from earlier work
[10] = biological target: T1, glucocorticoid receptor; settings: variety of human in vitro assays; cited from earlier work
[11] = protein binding; format: in vitro ADME
[12] = test system: rabbits, atropine sulfate model of dry eye disease; test: tear formation (Schirmer test) in atropine sulfate model of dry eye disease; format: in vivo; settings: 30 μL eye drops four times per day after atropine sulfate 1%, seven days
Procedure: Next, the effect on tear formation of treatment with the compound of Formula I was examined. Rabbits were placed in a restraining device, and atropine sulfate 1% ophthalmic solution (30 μL) was instilled into the lower conjunctival sac of each eye four times per day. Fifteen minutes after the administration of each dose of atropine sulfate, each eye received 30 μL of eye drops containing the active ingredient, vehicle, or saline. Tear volume was then evaluated by the Schirmer test (FIG. 2). Schirmer strips were carefully placed in the posterior (i.e., temporal) lower fornix for 60 seconds, and the wetted area was read in millimeters as an index of tear volume.

[13] = 46 hours after 10 μL of 2% cream on epidermal surface, 6 replicates

SMILES: CCC(=O)O[C@]1(C(=O)SCF)[C@H](C)C[C@H]2[C@@H]3C[C@H](F)C4=CC(=O)C=C[C@]4(C)[C@@]3(F)[C@@H](O)C[C@@]21C [FP, fluticasone propionate, reference compound]
transrepression of NFκB pathway activation (IL-6, IL-8 release) [1]: potently and efficiently transrepress

highest plasma concentration ([2]; 24 hours following the final Day 8 dose): 2.22 ng/mL | systemic accumulation ([2]; after 7.5 days of multiple topical eyelid application): no or very low systemic accumulation | effect on intraocular pressure (IOP) ([3]; 10 mg/mL suspension, 25 μL OU TID, topical to the eye): did not result in increased IOP | highest mean concentration in eyelid tissue ([4]; 4 hours post final dose, 2% cream, 15 applications over 7.5 days): 30613 ng/g | concentration at 8 h ([4]; Hanford, minipig, aqueous humor, topical, BID, 2% cream, 15 applications over 7.5 days, read-out: mean concentration in aqueous humor): 5.81 ng/g | concentration at 4 h ([4]; Hanford, minipig, bulbar conjunctiva, topical, BID, 4 hours post final dose, 2% cream, 15 applications over 7.5 days): 1930 ng/g | concentration at 8 h ([4]; Hanford, minipig, cornea, topical, BID, 2% cream, 15 applications over 7.5 days, read-out: mean concentration in cornea): 452 ng/g | concentration at 24 h ([4]; Hanford, minipig, iris/ciliary body (ICB), topical, BID, 24 hours post final dose, 2% cream, 15 applications over 7.5 days): 20.5 ng/g | detection in transdermal receptor fluid ([7]; 4, 8, 24 and 46 hours after application of 2% cream): not in the transdermal receptor fluid | accumulated amount in the dermis [7, 13]: 0.73+/−0.21 μg/cm^2 | accumulated amount in the epidermis [7, 13]: 2.89+/−0.32 μg/cm^2 | solubility [8]: ~35.8 µg/mL | fraction unbound [11]: ~0.01
SMILES: C[C@@H]1C[C@H]2[C@@H]3C[C@H](F)C4=CC(=O)C=C[C@]4(C)[C@@]3(F)[C@@H](O)C[C@]2(C)[C@@]1(OC(=O)C1C(C)(C)C1(C)C)C(=O)OCC#N [compound of Formula I, 6α,9α-difluoro-11 β-hydroxy-16α-methyl-3-oxo-17α-(2,2,3,3-tetramethycyclopropylcarbonyl)oxy-androsta-1,4-diene-17β-carboxylic acid cyanomethyl ester]
plasma exposure ([2]; up to 24 hours after last application, LLOQ 0.1 ng/mL): generally low or below the lower limit of quantification | IOP compared with dexamethasone treatment ([3]; 10 mg/mL suspension vs MAXIDEX 1 mg/mL, TID): significantly lower than dexamethasone treatment | exposure levels in each compartment over time ([4]; eyelids, conjunctiva, cornea, ICB, aqueous humor, post final peri-ocular dose): remained almost constant for up to 24 hours | glucocorticoid receptor-mediated transactivation [5]: partial response | anti-inflammatory activity in models of lung inflammation [6]: potent anti-inflammatory activity | anti-inflammatory activity in models of lung inflammation [9]: potent anti-inflammatory activity | glucocorticoid receptor-mediated transrepression activity [10]: close to full agonism | tear formation (Schirmer test) [12]: prevented a decrease in tear formation similar to topical dexamethasone | transrepression of NFκB pathway activation (IL-6, IL-8 release) [1]: potently and efficiently transrepress
